Experimental data published in patent US9096593B2, “Compounds and methods for kinase modulation, and indications therefor” (Plexxikon Inc., priority 2009, dated 2015).
Read-outs that look alike come from different tables or passages of the source.

How the values were obtained:
[1] = Turbidity assay of relative solubility in aqueous buffers; assay type: physicochemical; details: for turbidity threshold (L, M, H) 1.4: pH 1.4 as headed (method: SGF pH 1.5); for turbidity threshold (L, M, H) 4.5: pH 4.5 (SIF); for turbidity threshold (L, M, H) 6.8: pH 6.8 (SIF); for turbidity threshold (L, M, H) 7.4: pH 7.4 (HEPES)
Description: As an indication of relative solubility, the turbidity of compounds in aqueous solutions is assessed. To assess possible compound properties in different physiological compartments, such as stomach, intestine, and blood, a series of aqueous buffers with varying pH is used. Thus each compound is diluted into four different physiologically relevant buffers and solution turbidity is measured by spectrophotometry.
Compounds are dissolved at a concentration of 25 mM in dimethyl sulfoxide, then serially diluted 1:1 into a 96 well plate, diluting 10 times in pure dimethyl sulfoxide, with the final well of each row a dimethyl sulfoxide blank. In an assay plate, 99 μL of appropriate buffer is added to each well, and 1 μL of each sample dilution is added to the buffer, achieving a range of final total concentrations in aqueous solutions having different pH. The buffers used are Simulated Gastric Fluid (SGF-pH 1.5) 0.5M NaCl, pH 1.5; Simulated Intestinal fluid (SIF-pH 4.5 and pH 6.8) 0.05M NaH2PO4, pH 4.5 and 6.8; and Hepes Buffer (HEPES-pH 7.4) 10 mM HEPES, 150 mM NaCl, pH 7.4. Control compounds pyrene, estriol and propranolol HCl are also assessed. Plates are spun and then mixed for 1 minute, and the absorbance is read using a Tecan Safire II to read wavelengths in the visible range (490, 535, and 650 nm) at four locations per well, reflecting the degree of turbidity present. The average optical density for each wavelength in each well is graphed vs. compound concentration, and the concentration at which the curve crosses a threshold O.D. of 0.01 for each wavelength is reported as the endpoint turbidity assay result. The average of the three wavelengths is used to compare turbidity of compounds. Compounds are considered to have low solubility if the threshold concentration is <31.3 μM, moderate solubility if the threshold concentration is 31.3 μM to 250 μM, and high solubility if the threshold concentration is >250 μM.

CYP1A2 = CYP1A2 (Homo sapiens (Human), UniProt P05177); experiment: CYP enzyme inhibition, fluorescent substrate; details: human, 15 min
CYP1A2, sequence (P05177 whole entry): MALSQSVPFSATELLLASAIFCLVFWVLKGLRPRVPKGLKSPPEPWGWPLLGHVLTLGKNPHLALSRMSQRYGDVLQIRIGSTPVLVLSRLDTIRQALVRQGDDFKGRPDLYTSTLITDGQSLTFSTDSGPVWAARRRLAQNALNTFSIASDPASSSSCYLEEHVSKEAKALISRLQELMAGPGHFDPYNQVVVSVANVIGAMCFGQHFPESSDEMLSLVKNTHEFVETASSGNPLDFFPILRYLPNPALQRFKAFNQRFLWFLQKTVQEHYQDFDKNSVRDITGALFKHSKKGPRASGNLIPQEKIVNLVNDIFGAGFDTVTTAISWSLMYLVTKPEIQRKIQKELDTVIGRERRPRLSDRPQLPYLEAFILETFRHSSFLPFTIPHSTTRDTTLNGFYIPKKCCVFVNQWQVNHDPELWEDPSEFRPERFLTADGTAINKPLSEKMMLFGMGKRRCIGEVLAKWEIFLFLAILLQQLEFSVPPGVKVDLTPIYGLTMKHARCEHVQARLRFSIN
Description: (§1) CYP (Cytochrome P450) enzymes are the major drug metabolizing enzymes present in the liver. The inhibition of CYP enzyme activity (IC50) for each of CYP1A2, CYP2C19, CYP2C9, CYP2D6, CYP3A4(BFC) and CYP3A4(BQ) is determined for compounds, where inhibition of metabolism of a known substrate leads to a decrease in the fluorescence of the metabolized product. The fluorescence of the product is monitored as a function of compound concentration.
(§2) Compounds are dissolved in DMSO to a concentration of 100 mM. These are diluted 1 μL into 82 μL of acetonitrile. An 11 μL aliquot of this solution is then added to 204 μL of cofactor mix (1.3% NADPH Regeneration system Solution A, 1.04% NADPH Regeneration system Solution B from BD Biosciences, 5% acetonitrile and 0.05% DMSO). These are then serially diluted 1:1 (160 μL to 160 μL co-factor mix) for a total of 10 points. A 10 μL aliquot of this final mixture is dispensed into 384 well assay plates and incubated for 10 minutes at 37° C. Enzyme and substrate mix (10 μL; […] CYP1A2/5 μM CEC; 1.0 μmol CYP2C9/75 μM MFC; […] CYP2C19/25 μM CEC; 1.5 μmol CYP2D6/1.5 μM AMMC; 1.0 μmol CYP3A4/50 μM BFC; or 1.0 μmol CYP3A4/40 μM BQ) is added to these assay plates. Assay plates are incubated at 37° C. (CYP1A2-15 min; CYP2C9-45 min; CYP2C19, 2D6 and 3A4-30 min) and read in a Tecan Safire 2 plate reader (CYP1A2, 2C19 and 3A4 409 ex/460 em; CYP2C9 and 2D6409 ex/530 em). The signal versus compound concentration is used to determine the IC50. The enzymes and substrates for this assay are obtained from BD Biosciences.

CYP2C19 = CYP2C19 (Homo sapiens (Human), UniProt P33261); experiment: CYP enzyme inhibition, fluorescent substrate
CYP2C19, sequence (P33261 whole entry): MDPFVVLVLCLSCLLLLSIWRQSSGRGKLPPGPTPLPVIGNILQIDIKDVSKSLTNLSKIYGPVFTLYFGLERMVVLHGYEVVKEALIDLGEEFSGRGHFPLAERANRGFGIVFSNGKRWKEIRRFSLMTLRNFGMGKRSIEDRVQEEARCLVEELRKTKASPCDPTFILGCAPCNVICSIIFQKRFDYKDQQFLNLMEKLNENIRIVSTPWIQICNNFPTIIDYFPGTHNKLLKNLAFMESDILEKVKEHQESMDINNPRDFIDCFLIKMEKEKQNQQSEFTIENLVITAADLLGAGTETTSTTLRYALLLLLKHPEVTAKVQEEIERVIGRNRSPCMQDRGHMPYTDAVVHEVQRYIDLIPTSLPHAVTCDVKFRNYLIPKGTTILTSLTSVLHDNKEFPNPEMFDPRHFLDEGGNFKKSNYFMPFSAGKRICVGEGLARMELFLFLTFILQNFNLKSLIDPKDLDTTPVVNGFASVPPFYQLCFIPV
Description: as §1, §2

CYP2C9 = CYP2C9 (Homo sapiens (Human), UniProt P11712); experiment: CYP enzyme inhibition, fluorescent substrate
CYP2C9, sequence (P11712 whole entry): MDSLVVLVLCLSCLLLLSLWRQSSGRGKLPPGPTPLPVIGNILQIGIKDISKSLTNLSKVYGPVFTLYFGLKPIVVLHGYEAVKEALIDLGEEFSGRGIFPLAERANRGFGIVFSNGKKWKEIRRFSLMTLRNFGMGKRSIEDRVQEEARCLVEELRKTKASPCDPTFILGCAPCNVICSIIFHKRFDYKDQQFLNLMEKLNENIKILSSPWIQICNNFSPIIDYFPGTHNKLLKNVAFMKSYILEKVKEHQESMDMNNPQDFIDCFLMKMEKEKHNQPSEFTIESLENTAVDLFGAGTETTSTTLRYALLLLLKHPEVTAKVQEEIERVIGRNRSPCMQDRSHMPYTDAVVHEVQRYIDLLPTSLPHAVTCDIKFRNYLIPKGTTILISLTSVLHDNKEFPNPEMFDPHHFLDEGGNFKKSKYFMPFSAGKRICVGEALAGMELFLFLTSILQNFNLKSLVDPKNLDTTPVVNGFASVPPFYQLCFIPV
Description: as §1, §2

CYP2D6 = CYP2D6 (Homo sapiens (Human), UniProt P10635); experiment: CYP enzyme inhibition, fluorescent substrate; details: read-out: Cyp IC50 (μM) 2D6
CYP2D6, sequence (P10635 whole entry): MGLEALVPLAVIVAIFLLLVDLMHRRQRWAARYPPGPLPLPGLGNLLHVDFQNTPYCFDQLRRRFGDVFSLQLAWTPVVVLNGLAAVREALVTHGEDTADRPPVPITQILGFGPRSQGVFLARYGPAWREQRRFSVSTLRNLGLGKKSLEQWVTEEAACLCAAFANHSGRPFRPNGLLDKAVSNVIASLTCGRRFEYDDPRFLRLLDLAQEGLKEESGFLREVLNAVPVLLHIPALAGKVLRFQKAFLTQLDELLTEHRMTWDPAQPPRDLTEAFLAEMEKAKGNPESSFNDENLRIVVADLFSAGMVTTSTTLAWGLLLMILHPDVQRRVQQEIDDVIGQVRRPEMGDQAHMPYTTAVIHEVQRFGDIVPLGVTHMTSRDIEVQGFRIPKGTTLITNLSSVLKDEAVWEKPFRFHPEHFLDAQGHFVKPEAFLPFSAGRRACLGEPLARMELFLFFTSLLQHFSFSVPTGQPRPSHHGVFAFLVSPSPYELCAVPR
Description: as §1, §2

CYP3A4(BFC) = CYP3A4(BFC) (Homo sapiens (Human), UniProt P08684); experiment: CYP enzyme inhibition, fluorescent substrate
CYP3A4(BFC), sequence (P08684 whole entry): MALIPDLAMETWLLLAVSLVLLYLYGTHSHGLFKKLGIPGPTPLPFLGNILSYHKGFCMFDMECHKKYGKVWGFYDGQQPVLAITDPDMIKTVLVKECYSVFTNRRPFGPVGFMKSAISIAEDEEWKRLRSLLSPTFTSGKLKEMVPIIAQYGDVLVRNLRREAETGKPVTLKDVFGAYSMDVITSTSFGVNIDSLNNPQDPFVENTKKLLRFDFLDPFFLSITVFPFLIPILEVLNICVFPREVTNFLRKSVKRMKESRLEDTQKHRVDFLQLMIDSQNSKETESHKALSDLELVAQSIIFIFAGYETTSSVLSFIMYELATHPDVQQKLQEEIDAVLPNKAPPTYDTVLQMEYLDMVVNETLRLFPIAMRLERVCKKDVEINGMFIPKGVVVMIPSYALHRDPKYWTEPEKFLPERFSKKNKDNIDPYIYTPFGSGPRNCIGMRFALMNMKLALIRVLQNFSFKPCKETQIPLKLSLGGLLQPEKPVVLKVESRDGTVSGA
Description: as §1, §2

CYP3A4(BQ) = CYP3A4(BQ) (Homo sapiens (Human), UniProt P08684); experiment: CYP enzyme inhibition, fluorescent substrate; details: read-out: Cyp IC50 (μM) 3A4(BQ); BQ substrate
CYP3A4(BQ), sequence (P08684 whole entry): as above
Description: as §1, §2

Fms kinase = Fms kinase (Homo sapiens (Human), UniProt P07333); experiment: Fms kinase biochemical activity assay (AlphaScreen, biotin-(E4Y)10 phosphorylation)
Fms kinase, sequence (P07333 20-972): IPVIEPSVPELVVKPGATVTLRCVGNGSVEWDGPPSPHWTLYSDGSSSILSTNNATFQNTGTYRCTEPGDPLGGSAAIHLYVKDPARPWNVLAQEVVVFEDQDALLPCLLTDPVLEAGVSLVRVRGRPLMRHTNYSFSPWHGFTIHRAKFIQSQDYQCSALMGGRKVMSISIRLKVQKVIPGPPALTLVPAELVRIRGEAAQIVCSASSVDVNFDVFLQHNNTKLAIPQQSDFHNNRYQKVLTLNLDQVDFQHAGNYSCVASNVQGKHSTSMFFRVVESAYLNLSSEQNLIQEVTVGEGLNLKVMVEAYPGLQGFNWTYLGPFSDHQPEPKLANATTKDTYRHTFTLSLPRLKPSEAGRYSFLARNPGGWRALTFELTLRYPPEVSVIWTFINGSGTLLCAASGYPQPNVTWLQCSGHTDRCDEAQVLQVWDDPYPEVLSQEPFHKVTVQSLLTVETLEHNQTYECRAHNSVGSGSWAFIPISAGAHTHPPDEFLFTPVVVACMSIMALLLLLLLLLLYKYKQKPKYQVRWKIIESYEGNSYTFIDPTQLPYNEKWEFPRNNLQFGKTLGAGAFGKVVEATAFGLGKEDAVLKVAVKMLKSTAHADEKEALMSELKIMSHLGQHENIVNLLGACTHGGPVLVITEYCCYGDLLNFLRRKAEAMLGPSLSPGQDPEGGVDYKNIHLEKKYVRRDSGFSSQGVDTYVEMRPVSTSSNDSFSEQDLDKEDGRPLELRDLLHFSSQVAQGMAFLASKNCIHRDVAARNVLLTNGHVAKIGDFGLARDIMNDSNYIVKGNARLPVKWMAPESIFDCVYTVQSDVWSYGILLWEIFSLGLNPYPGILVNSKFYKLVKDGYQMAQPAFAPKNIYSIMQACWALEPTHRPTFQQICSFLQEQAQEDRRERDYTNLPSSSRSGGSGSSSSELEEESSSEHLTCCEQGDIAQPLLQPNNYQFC
Description: In one assay the biochemical activity IC50 values are determined with respect to inhibition of Fms kinase activity, where inhibition of phosphorylation of a peptide substrate is measured as a function of compound concentration. Compounds to be tested, dissolved in DMSO (1 μL), are added to a white 384-well plate (Costar #3705). Working stocks of Fms kinase (Invitrogen #PV3249), biotin-(E4Y)10 substrate (Upstate Biotech, Cat#12-440), and ATP (Sigma, Cat#A-3377) are prepared in 25 mM Hepes pH 7.5, 0.5 mM MgCl2, 2 mM MnCl2, 2 mM DTT, 0.01% BSA, and 0.01% Tween-20. All components are added to the 384-well plate for a final concentration of 1 ng/well Fms, 30 nM biotin-(E4Y)10 (Upstate Biotechnology) and 100 μM ATP in a volume of 20 μL. Each sample is at 5% DMSO. The plate is then incubated for 20 minutes at 30° C. Just before use, working stocks of donor and acceptor beads from the AlphaScreen PY20 Detection Kit (PerkinElmer, Cat#676601M) are prepared in 25 mM Hepes pH 7.5, pH 7.4, 100 mM EDTA, 0.01% BSA. To stop the reaction, the plate is uncovered in the dark and 5 μL of Donor Beads solution (Streptavidin beads) is added to each well. The plate is incubated at room temperature for 20 minutes. Five microliters of Acceptor Beads solution (PY20 coated beads) are then added to each well. The final concentration of each bead is 10 μg/mL. The plates are incubated at room temperature for 60 minutes. Fluorescence signal is recorded on the Envision reader. […] The signal vs. compound concentration is used to determine the IC50.

c-Kit kinase = c-Kit kinase (Homo sapiens (Human), UniProt P10721); experiment: c-Kit kinase biochemical activity assay (AlphaScreen, biotin-(E4Y)10 phosphorylation)
c-Kit kinase, sequence (P10721 26-976): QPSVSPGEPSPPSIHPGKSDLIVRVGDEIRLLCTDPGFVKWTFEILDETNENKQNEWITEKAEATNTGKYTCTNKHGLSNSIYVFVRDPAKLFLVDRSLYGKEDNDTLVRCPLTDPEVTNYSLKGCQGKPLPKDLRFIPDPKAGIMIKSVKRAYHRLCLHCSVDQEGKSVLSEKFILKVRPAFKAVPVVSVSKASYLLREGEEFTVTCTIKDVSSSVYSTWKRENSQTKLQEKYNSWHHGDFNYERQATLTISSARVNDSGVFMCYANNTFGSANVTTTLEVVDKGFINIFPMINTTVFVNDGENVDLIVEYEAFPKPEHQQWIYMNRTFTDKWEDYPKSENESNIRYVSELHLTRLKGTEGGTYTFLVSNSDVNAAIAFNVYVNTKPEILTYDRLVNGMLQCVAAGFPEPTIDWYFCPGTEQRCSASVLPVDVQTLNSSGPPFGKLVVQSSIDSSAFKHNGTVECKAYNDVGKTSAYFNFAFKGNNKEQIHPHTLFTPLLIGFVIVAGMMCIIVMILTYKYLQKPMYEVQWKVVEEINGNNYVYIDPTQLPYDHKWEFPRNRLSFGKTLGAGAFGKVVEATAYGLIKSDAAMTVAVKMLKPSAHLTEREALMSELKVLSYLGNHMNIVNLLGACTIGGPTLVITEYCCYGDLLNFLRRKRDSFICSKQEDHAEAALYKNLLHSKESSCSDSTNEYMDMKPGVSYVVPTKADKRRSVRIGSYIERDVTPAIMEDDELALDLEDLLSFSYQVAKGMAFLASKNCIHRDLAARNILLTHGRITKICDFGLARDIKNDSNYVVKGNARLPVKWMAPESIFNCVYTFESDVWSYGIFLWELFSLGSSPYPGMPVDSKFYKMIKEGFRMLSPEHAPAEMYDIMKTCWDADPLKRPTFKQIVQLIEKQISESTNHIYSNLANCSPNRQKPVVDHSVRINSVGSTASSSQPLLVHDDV
Description: In one assay the biochemical activity IC50 values are determined with respect to inhibition of c-Kit kinase activity, where inhibition of phosphorylation of a peptide substrate is measured as a function of compound concentration. Compounds to be tested are dissolved in DMSO to a concentration of 20 mM. These are diluted 30 μL into 120 μL of DMSO (4 mM) and 1 μL is added to an assay plate. These are then serially diluted […] (50 μL to 100 μL DMSO) for a total of 8 points. Plates are prepared such that each kinase reaction is 20 μL in 1× kinase buffer (25 mM HEPES, pH 7.5, 2 mM MgCl2, 2 mM MnCl2, 0.01% Tween-20, 1 mM DTT, 0.01% BSA), 5% DMSO and 100 μM ATP. Substrate is 30 nM biotin-(E4Y)10 (Millipore). C-kit kinase (obtained from Millipore (#14-559) or is prepared as described in U.S. Patent Application Publication Number 2009/0076046, the disclosure of which is hereby incorporated by reference as it relates to this assay) is at 0.75 ng per sample. After incubation of the kinase reaction for 1 hour at room temperature, 5 μL of donor beads (Streptavidin coated beads (Perkin Elmer Life Science) final concentration 10 μg/mL) in stop buffer (25 mM Hepes pH 7.5, 100 mM EDTA, 0.01% BSA) is added, the sample is mixed and incubated for 20 minutes at room temperature before adding 5 μL of acceptor beads (PY20 coated beads (Perkin Elmer Life Science) final concentration 10 μg/mL) in stop buffer. The samples are incubated for 60 minutes at room temperature and the signal per well is read on Envision reader. […] The signal vs. compound concentration is used to determine the IC50.

Structure (SMILES) | turbidity threshold (L, M, H) 1.4 [1] | turbidity threshold (L, M, H) 4.5 [1] | turbidity threshold (L, M, H) 6.8 [1] | turbidity threshold (L, M, H) 7.4 [1] | IC50 (CYP1A2) | IC50 (CYP2C19) | IC50 (CYP2C9) | IC50 (CYP2D6) | IC50 (CYP3A4(BFC)) | IC50 (CYP3A4(BQ)) | Biochemical activity selectivity (Kit IC50/Fms IC50) (Fms kinase; Kit IC50/Fms IC50, biochemical) | IC50 (Fms kinase; read-out: Biochemical activity (IC50 μM) Fms) | IC50 (c-Kit kinase) | IC50 (CYP2C19; read-out: Cyp IC50 (μM) 2C19) | IC50 (CYP2C9; read-out: Cyp IC50 (μM) 2C9) | IC50 (CYP3A4(BFC); read-out: Cyp IC50 (μM) 3A4(BFC), BFC substrate)
COc1ncc(F)cc1CNc1ccc(Cc2c[nH]c3ncc(C)cc23)c(F)n1 [Compound P-2049, (5-Fluoro-2-methoxy-pyridin-3-ylmethyl)-[6-fluoro-5-(5-methyl-1H-pyrrolo[2,3-b]pyridin-3-ylmethyl)-pyridin-2-yl]-amine] | M (moderate solubility if the threshold concentration is 31.3 μM to 250 μM) | L (low solubility if the threshold concentration is <31.3 μM) | L (low solubility if the threshold concentration is <31.3 μM) | L (low solubility if the threshold concentration is <31.3 μM) | > 10 µM | 5 to 10 µM | 5 to 10 µM | > 10 µM | 5 to 10 µM | > 10 µM | – | – | – | – | – | –
Cc1cnc2[nH]cc(Cc3ccc(NCc4ccnc(C)c4)nc3F)c2c1 [Compound P-2067, [6-Fluoro-5-(5-methyl-1H-pyrrolo[2,3-b]pyridin-3-ylmethyl)-pyridin-2-yl]-(2-methyl-pyridin-4-ylmethyl)-amine] | H (high solubility if the threshold concentration is >250 μM) | H (high solubility if the threshold concentration is >250 μM) | H (high solubility if the threshold concentration is >250 μM) | H (high solubility if the threshold concentration is >250 μM) | > 10 µM | – | – | – | – | > 10 µM | >20 | < 0.1 µM | > 0.1 µM | < 5 µM | < 5 µM | < 5 µM
